Test results from ChEMBL document CHEMBL2202996, “Synthesis, evaluation, and radiolabeling of new potent positive allosteric modulators of the metabotropic glutamate receptor 2 as potential tracers for positron emission tomography imaging” (J Med Chem, 2012).

How the values were obtained:
[1] = Metabolic stability in Wistar rat cerebellum assessed as intact tracer at 74 MBq, iv measured at 30 mins post administration by gamma counting; format: ADME, organism-based; details: read-out: Stability
Blood [2] = test: Biodistribution in iv dosed Wistar rat blood measured at 60 mins post administration by gamma counting; format: ADME, organism-based; details: in vivo, 1 h
Cortex [3] = test: Biodistribution in Wistar rat cortex at 41 MBq, iv measured at 12 to 28 mins post administration by microPET imaging in presence of JNJ-40068782; format: ADME, organism-based; details: in vivo
Hippocampus [4] = test: Biodistribution in iv dosed Wistar rat hippocampus measured at 60 mins post administration by gamma counting; format: ADME, organism-based; details: in vivo, 1 h
Cerebellum [5] = test: Biodistribution in iv dosed Wistar rat cerebellum measured at 2 mins post administration by gamma counting; format: ADME, organism-based; details: in vivo
Cortex [6] = test: Biodistribution in iv dosed Wistar rat cortex measured at 60 mins post administration by gamma counting; format: ADME, organism-based; details: in vivo, 1 h
Striatum [7] = test: Biodistribution in iv dosed Wistar rat striatum measured at 30 mins post administration by gamma counting; format: ADME, organism-based; details: in vivo, 0.5 h
[8] = Metabolic stability in Wistar rat plasma assessed as intact tracer at 74 MBq, iv measured at 30 mins post administration by gamma counting; format: ADME, organism-based; details: read-out: Stability
Intestine = test: Biodistribution in Wistar rat intestine at 22 Mbq, iv measured at 60 mins post administration by gamma counting; format: ADME, organism-based; details: in vivo, 1 h
Blood [9] = test: Biodistribution in iv dosed Wistar rat blood measured at 30 mins post administration by gamma counting; format: ADME, organism-based; details: in vivo, 0.5 h
Brain [10] = test: Biodistribution in iv dosed Wistar rat total brain measured at 60 mins post administration by gamma counting; format: ADME, organism-based; details: in vivo, 1 h
Cerebellum [11] = test: Biodistribution in iv dosed Wistar rat cerebellum measured at 30 mins post administration by gamma counting; format: ADME, organism-based; details: in vivo, 0.5 h
Cerebrum [12] = test: Ratio of SUV in cerebrum in iv dosed Wistar at 2 mins post administration by gamma counting to SUV in cerebrum in iv dosed Wistar at 30 mins post administration by gamma counting; format: ADME, organism-based; details: rat, in vivo
Cerebrum [13] = test: Biodistribution in iv dosed Wistar rat cerebrum measured at 2 mins post administration by gamma counting; format: ADME, organism-based; details: in vivo
Striatum [14] = test: Biodistribution in Wistar rat striatum at 41 MBq, iv measured at 12 to 28 mins post administration by microPET imaging in presence of JNJ-40068782; format: ADME, organism-based; details: in vivo
Brain [15] = test: Biodistribution in iv dosed Wistar rat total brain measured at 30 mins post administration by gamma counting; format: ADME, organism-based; details: in vivo, 0.5 h
[16] = Metabolic stability in Wistar rat cerebrum assessed as intact tracer at 74 MBq, iv measured at 30 mins post administration by gamma counting; format: ADME, organism-based; details: read-out: Stability
Cortex [17] = test: Biodistribution in iv dosed Wistar rat cortex measured at 30 mins post administration by gamma counting; format: ADME, organism-based; details: in vivo, 0.5 h
Cerebellum [18] = test: Biodistribution in Wistar rat cerebellum at 41 MBq, iv measured at 12 to 28 mins post administration by microPET imaging in presence of JNJ-40068782; format: ADME, organism-based; details: in vivo
Hippocampus [19] = test: Biodistribution in iv dosed Wistar rat hippocampus measured at 2 mins post administration by gamma counting; format: ADME, organism-based; details: in vivo
Thalamus [20] = test: Biodistribution in Wistar rat thalamus at 41 MBq, iv measured at 12 to 28 mins post administration by microPET imaging; format: ADME, organism-based; details: in vivo
Blood [21] = test: Biodistribution in iv dosed Wistar rat blood measured at 2 mins post administration by gamma counting; format: ADME, organism-based; details: in vivo
Cerebellum [22] = test: Ratio of SUV in cerebellum in iv dosed Wistar at 2 mins post administration by gamma counting to SUV in cerebellum in iv dosed Wistar at 30 mins post administration by gamma counting; format: ADME, organism-based; details: rat, in vivo
Brain [23] = test: Biodistribution in Wistar rat brain at 41 MBq, iv measured at 27 mins post administration by microPET imaging; format: ADME, organism-based; details: in vivo, 0.45 h
Brain [24] = test: Biodistribution in Wistar rat brain at 41 MBq, iv measured at 12 mins post administration by microPET imaging; format: ADME, organism-based; details: in vivo, 0.2 h
Cerebrum [25] = test: Biodistribution in iv dosed Wistar rat cerebrum measured at 30 mins post administration by gamma counting; format: ADME, organism-based; details: in vivo, 0.5 h
Hippocampus [26] = test: Biodistribution in Wistar rat hippocampus at 41 MBq, iv measured at 12 to 28 mins post administration by microPET imaging; format: ADME, organism-based; details: in vivo
Cerebrum [27] = test: Biodistribution in Wistar rat cerebrum at 22 Mbq, iv measured at 2 mins post administration by gamma counting; format: ADME, organism-based; details: in vivo
Brain [28] = test: Biodistribution in Wistar rat brain at 22 Mbq, iv measured at 2 mins post administration by gamma counting; format: ADME, organism-based; details: in vivo
Hippocampus [29] = test: Biodistribution in iv dosed Wistar rat hippocampus measured at 30 mins post administration by gamma counting; format: ADME, organism-based; details: in vivo, 0.5 h
Cerebellum [30] = test: Biodistribution in Wistar rat cerebellum at 41 MBq, iv measured at 12 to 28 mins post administration by microPET imaging; format: ADME, organism-based; details: in vivo
Liver = test: Biodistribution in Wistar rat liver at 22 Mbq, iv measured at 60 mins post administration by gamma counting; format: ADME, organism-based; details: in vivo, 1 h
Blood [31] = test: Biodistribution in Wistar rat blood at 22 Mbq, iv measured at 60 mins post administration by gamma counting; format: ADME, organism-based; details: in vivo, 1 h
Blood [32] = test: Biodistribution in Wistar rat blood at 22 Mbq, iv measured at 2 mins post administration by gamma counting; format: ADME, organism-based; details: in vivo
Cerebellum [33] = test: Biodistribution in iv dosed Wistar rat cerebellum measured at 60 mins post administration by gamma counting; format: ADME, organism-based; details: in vivo, 1 h
Brain [34] = test: Ratio of SUV in total brain in iv dosed Wistar at 2 mins post administration by gamma counting to SUV in total brain in iv dosed Wistar at 30 mins post administration by gamma counting; format: ADME, organism-based; details: rat, in vivo
Cortex [35] = test: Biodistribution in iv dosed Wistar rat cortex measured at 2 mins post administration by gamma counting; format: ADME, organism-based; details: in vivo
Striatum [36] = test: Ratio of SUV in striatum in iv dosed Wistar at 2 mins post administration by gamma counting to SUV in striatum in iv dosed Wistar at 30 mins post administration by gamma counting; format: ADME, organism-based; details: rat, in vivo
Thalamus [37] = test: Biodistribution in Wistar rat thalamus at 41 MBq, iv measured at 12 to 28 mins post administration by microPET imaging in presence of JNJ-40068782; format: ADME, organism-based; details: in vivo
Striatum [38] = test: Biodistribution in Wistar rat striatum at 41 MBq, iv measured at 12 to 28 mins post administration by microPET imaging; format: ADME, organism-based; details: in vivo
Striatum [39] = test: Biodistribution in iv dosed Wistar rat striatum measured at 60 mins post administration by gamma counting; format: ADME, organism-based; details: in vivo, 1 h
Brain [40] = test: Biodistribution in iv dosed Wistar rat total brain measured at 2 mins post administration by gamma counting; format: ADME, organism-based; details: in vivo
Cortex [41] = test: Biodistribution in Wistar rat cortex at 41 MBq, iv measured at 12 to 28 mins post administration by microPET imaging; format: ADME, organism-based; details: in vivo
Hippocampus [42] = test: Biodistribution in Wistar rat hippocampus at 41 MBq, iv measured at 12 to 28 mins post administration by microPET imaging in presence of JNJ-40068782; format: ADME, organism-based; details: in vivo
Hippocampus [43] = test: Ratio of SUV in hippocampus in iv dosed Wistar at 2 mins post administration by gamma counting to SUV in hippocampus in iv dosed Wistar at 30 mins post administration by gamma counting; format: ADME, organism-based; details: rat, in vivo
Cerebrum [44] = test: Biodistribution in iv dosed Wistar rat cerebrum measured at 60 mins post administration by gamma counting; format: ADME, organism-based; details: in vivo, 1 h
Striatum [45] = test: Biodistribution in iv dosed Wistar rat striatum measured at 2 mins post administration by gamma counting; format: ADME, organism-based; details: in vivo
Rattus norvegicus = test: Biodistribution in Wistar rat urinary system at 22 Mbq, iv measured at 60 mins post administration by gamma counting; format: ADME, organism-based, Urine; details: in vivo, 1 h
Cortex [46] = test: Ratio of SUV in cortex in iv dosed Wistar at 2 mins post administration by gamma counting to SUV in cortex in iv dosed Wistar at 30 mins post administration by gamma counting; format: ADME, organism-based; details: rat, in vivo
Cerebellum [47] = test: Biodistribution in Wistar rat cerebellum at 22 Mbq, iv measured at 2 mins post administration by gamma counting; format: ADME, organism-based; details: in vivo

[11CH3]Oc1c(F)ccc(F)c1C1CCN(c2ccn3c(CC4CC4)nnc3c2Cl)CC1
remaining at 0.5 h [1]: 95.5%
SUV (Blood [2]): 0.28
Drug uptake (Cortex [3]): Not Active
SUV (Hippocampus [4]): 0.73
SUV (Cerebellum [5]): 1.59
SUV (Cortex [6]): 1.28
SUV (Striatum [7]): 2.14
remaining at 0.5 h [8]: 69.7%
Drug uptake (Intestine): 35.7%
SUV (Blood [9]): 0.39
SUV (Brain [10]): 1.18
SUV (Cerebellum [11]): 2.62
Ratio (Cerebrum [12]): 0.67
SUV (Cerebrum [13]): 1.32
Drug uptake (Striatum [14]): Not Active
SUV (Brain [15]): 2.13
remaining at 0.5 h [16]: 90.3%
SUV (Cortex [17]): 1.77
Drug uptake (Cerebellum [18]): Not Active
SUV (Hippocampus [19]): 0.9
Drug uptake (Thalamus [20]): Active
SUV (Blood [21]): 0.61
Ratio (Cerebellum [22]): 0.61
SUV (Brain [23]): 1.7
SUV (Brain [24]): 1.7
SUV (Cerebrum [25]): 1.96
Drug uptake (Hippocampus [26]): Active
Drug uptake (Cerebrum [27]): 0.69 %ID
Drug uptake (Brain [28]): 0.88 %ID
SUV (Hippocampus [29]): 1.49
Drug uptake (Cerebellum [30]): Active
Drug uptake (Liver): 35.7%
Drug uptake (Blood [31]): 2 %ID
Drug uptake (Blood [32]): 4.3 %ID
SUV (Cerebellum [33]): 1.75
Ratio (Brain [34]): 0.65
SUV (Cortex [35]): 1.46
Ratio (Striatum [36]): 0.57
Drug uptake (Thalamus [37]): Not Active
Drug uptake (Striatum [38]): Active
SUV (Striatum [39]): 1.72
SUV (Brain [40]): 1.39
Drug uptake (Cortex [41]): Active
Drug uptake (Hippocampus [42]): Not Active
Ratio (Hippocampus [43]): 0.6
SUV (Cerebrum [44]): 1.11
SUV (Striatum [45]): 1.22
Drug uptake (Rattus norvegicus): 2.4 %ID
Ratio (Cortex [46]): 0.82
Drug uptake (Cerebellum [47]): 0.17 %ID
